The text below walks through data of ChEMBL document CHEMBL1142773, “1-(4-Amino-phenyl)-pyrrolidin-3-yl-amine and 6-(3-amino-pyrrolidin-1-yl)-pyridin-3-yl-amine derivatives as melanin-concentrating hormone receptor-1 antagonists” (Bioorg Med Chem Lett, 2005).

One test deals with T1, Melanin-concentrating hormone receptor 1 (Homo sapiens, UniProt Q99705). In words: Binding affinity towards human MCH-R1 evaluated by its ability to displace radioligand [125I]Tyr13]-MCH.
T1 sequence (Q99705 whole entry): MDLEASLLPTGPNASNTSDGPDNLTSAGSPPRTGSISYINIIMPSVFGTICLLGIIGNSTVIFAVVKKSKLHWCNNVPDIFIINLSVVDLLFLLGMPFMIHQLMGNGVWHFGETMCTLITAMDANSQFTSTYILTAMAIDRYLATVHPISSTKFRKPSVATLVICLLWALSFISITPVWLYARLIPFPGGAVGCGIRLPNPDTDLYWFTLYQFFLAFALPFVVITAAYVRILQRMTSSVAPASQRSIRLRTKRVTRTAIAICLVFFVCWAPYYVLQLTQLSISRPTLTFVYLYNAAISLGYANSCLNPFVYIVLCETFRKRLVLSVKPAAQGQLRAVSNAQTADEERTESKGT
`CCN1CCN(c2ccc(C(=O)Nc3ccc(N4CCC(N(C)C)C4)cc3)cn2)CC1` (stereo unspecified): the inhibitory constant (Ki) is more than 10 µM.

`CN(C)C1CCN(c2ccc(NC(=O)c3ccc(-c4cnco4)cc3)cc2)C1` (stereo unspecified) gave an inhibition constant (Ki) of more than 10 µM. `CN(C)C1CCN(c2ccc(NC(=O)c3ccc4c(c3)C(=O)c3ccccc3-4)cc2)C1` (stereo unspecified) gave an inhibition constant Ki of more than 10 µM. The same measure, in the same setting: for `CN(C(=O)OC(C)(C)C)C1CCN(c2ccc(NC(=O)c3ccc(-c4ccccc4)cc3)cc2)C1` (stereo unspecified) the value was more than 10 µM.

In turn, `CCN(C)C1CCN(c2ccc(NC(=O)c3ccc(-c4ccccc4)cc3)cc2)C1` (stereo unspecified) showed a Ki of 0.0059 µM.

`CN(C)C1CCN(c2ccc(NC(=O)c3ccc(-c4ccccc4)nc3)cc2)C1` (stereo unspecified) displayed a Ki of 0.11 µM. For `CN(C)C1CCN(c2ccc(NC(=O)Cc3ccc(-c4ccccc4)cc3)cc2)C1` (stereo unspecified), the Ki turned out to be 4.3 µM.

`CN(C)C1CCN(c2ccc(NC(=O)c3ccc(N4CCCCC4)nc3)cc2)C1` (stereo unspecified) returned a Ki of 2.4 µM. On to `COc1ccc(CCCNC(=O)Nc2ccc(N3CCC(N(C)C)C3)cc2)cc1` (stereo unspecified), for which the Ki came out at 0.052 µM.

Molecule `CN(C)C1CCN(c2ccc(NC(=O)CCCC(=O)c3ccccc3)cc2)C1` (stereo unspecified) gave a Ki of 0.25 µM. This Ki is about 4.8-fold higher than that of the molecule before.

As for `CC(=O)N(C)C1CCN(c2ccc(NC(=O)c3ccc(-c4ccccc4)cc3)cc2)C1` (stereo unspecified), affinity was put at a Ki of 3 µM. Take `CN(C)C1CCN(c2ccc(NC(=O)NCCCc3ccccc3)cc2)C1` (stereo unspecified): the affinity corresponds to a Ki of 0.043 µM. In turn, `CN(C)C1CCN(c2ccc(NC(=O)C3CCC(c4ccccc4)CC3)cc2)C1` (stereo unspecified) displayed an inhibition constant Ki of 0.014 µM. As for `CNC1CCN(c2ccc(NC(=O)c3ccc(-c4ccccc4)cc3)cc2)C1` (stereo unspecified), the affinity, expressed as Ki, was 0.0031 µM. Take `CN(Cc1ccccc1)C1CCN(c2ccc(NC(=O)c3ccc(-c4ccccc4)cc3)cc2)C1` (stereo unspecified): the affinity, expressed as Ki, was 0.031 µM.

`CN(C)C1CCN(c2ccc(NC(=O)c3ccc(-n4ccnc4)cc3)cc2)C1` (stereo unspecified): the Ki is more than 10 µM. Same read-out and setting: for `CN(C)C1CCN(c2ccc(NC(=O)CCC(=O)c3ccc(Cl)cc3)cc2)C1` (stereo unspecified) the value was 0.013 µM; for `COc1ccc(-c2ccc(C(=O)Nc3ccc(N4CCC(N(C)C)C4)cc3)cn2)cc1` (stereo unspecified), 0.016 µM; for `CN(C)C1CCN(c2ccc(NC(=O)c3ccc(-c4cccs4)cc3)cc2)C1` (stereo unspecified), 0.034 µM.

In turn, `CN(CCCc1ccccc1)C1CCN(c2ccc(NC(=O)c3ccc(-c4ccccc4)cc3)cc2)C1` (stereo unspecified) came in with an inhibition constant (Ki) of 0.0086 µM.

For `CN(C)C1CCN(c2ccc(NC(=O)c3ccc(-c4ccccc4)cc3)cc2)C1` (stereo unspecified), the affinity, expressed as Ki, was 0.0052 µM. The same measure, in the same setting: for `CN(C)C1CCN(c2ccc(NC(=O)c3ccc(Oc4ccccc4)cc3)cc2)C1` (stereo unspecified) the value was more than 10 µM; for `CN(C)C1CCN(c2ccc(NC(=O)C3CCC(c4ccc(Cl)cc4)CC3)cc2)C1` (stereo unspecified), 0.012 µM; for `CN(Cc1ccccn1)C1CCN(c2ccc(NC(=O)c3ccc(-c4ccccc4)cc3)cc2)C1` (stereo unspecified), 0.13 µM. Take `CN(CC1CC1)C1CCN(c2ccc(NC(=O)c3ccc(-c4ccccc4)cc3)cc2)C1` (stereo unspecified): affinity was put at a Ki of 0.0055 µM.

In another test the target is T1, Melanin-concentrating hormone receptor 1. In words: Inhibitory concentration against human MCH-R1-stimulated [Ca2+] influx.
On to `CNC1CCN(c2ccc(NC(=O)c3ccc(-c4ccccc4)cc3)cc2)C1` (stereo unspecified), for which the concentration for half-maximal inhibition (IC50) was 0.166 µM. This counts as sub-micromolar.

The Ki is a measure of affinity in units of concentration, obtained from inhibition or displacement. Read a low Ki as higher affinity. The IC50 is the concentration that inhibits the measured activity by half. Lower therefore signals higher potency.
